Calls of active or inactive are those of the source. The calls are words filed in the database; no cut-off is given here.
Legend:
[1] = species on record: Mus musculus; experiment: Protection against photo thrombotic stroke induced cerebral ischemic male C57 mouse model assessed as improvement in sensory motor dysfunction measured after 5 days by foot fault test; type: functional, organism-based; settings: time 5.0 day
[2] = species on record: Mus musculus; experiment: Protection against photo thrombotic stroke induced cerebral ischemic male C57 mouse model assessed as reduction in number neutrophils measured after 7 days; type: functional, organism-based; settings: time 7.0 day
[3] = species on record: Mus musculus; experiment: Protection against photo thrombotic stroke induced cerebral ischemic male C57 mouse model assessed as improvement in sensory motor dysfunction measured after 5 days by rotarod test; type: functional, organism-based; settings: time 5.0 day
[4] = molecular target: T1, Myeloperoxidase (Homo sapiens) (UniProt P05164); experiment: Binding affinity to MPO (unknown origin) assessed as change in enthalpy by ITC analysis
T1 sequence (whole entry): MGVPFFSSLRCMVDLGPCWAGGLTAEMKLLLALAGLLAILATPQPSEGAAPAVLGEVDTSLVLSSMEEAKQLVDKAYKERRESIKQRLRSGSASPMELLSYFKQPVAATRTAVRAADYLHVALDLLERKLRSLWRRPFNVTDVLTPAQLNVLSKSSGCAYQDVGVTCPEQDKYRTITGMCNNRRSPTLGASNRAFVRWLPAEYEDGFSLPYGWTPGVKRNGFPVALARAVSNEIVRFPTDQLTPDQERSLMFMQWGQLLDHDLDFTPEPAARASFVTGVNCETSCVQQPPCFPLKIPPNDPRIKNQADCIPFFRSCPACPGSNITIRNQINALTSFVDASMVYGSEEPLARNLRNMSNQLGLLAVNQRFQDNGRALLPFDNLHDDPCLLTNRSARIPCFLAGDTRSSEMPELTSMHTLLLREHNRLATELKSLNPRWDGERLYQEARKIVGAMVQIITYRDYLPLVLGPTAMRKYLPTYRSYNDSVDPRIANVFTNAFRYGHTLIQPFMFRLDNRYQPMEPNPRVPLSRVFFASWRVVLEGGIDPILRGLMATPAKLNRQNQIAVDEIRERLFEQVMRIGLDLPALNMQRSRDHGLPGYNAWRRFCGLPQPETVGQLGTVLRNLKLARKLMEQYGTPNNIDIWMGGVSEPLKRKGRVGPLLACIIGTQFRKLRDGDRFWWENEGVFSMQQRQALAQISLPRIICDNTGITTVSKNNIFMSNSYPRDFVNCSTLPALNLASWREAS

[5] = molecular target: T1, Myeloperoxidase (Homo sapiens); experiment: (§1) Binding affinity to MPO (unknown origin) assessed as dissociation constant by ITC analysis
[6] = test system: Brain; experiment: (§2) Ex vivo protection against photo thrombotic stroke induced cerebral ischemia in male C57BL/6 mouse brain assessed as decrease in MPO induced HClO fluorescence signal in cortex at 10 uM preincubated with MPO-IN-28 for 1 hr followed by compound addition and measured after 30 mins by fluorescence imaging based confocal microscopy analysis; type: functional, tissue-based
[7] = Drug uptake in IFN-gamma treated human Neutrophil cells assessed as increase in fluorescence at 10 uM measured after 30 mins by Hoechst staining based confocal microscopic analysis; type: ADME, cell-based; settings: 0.5 h
[8] = molecular target: T1, Myeloperoxidase (Homo sapiens); experiment: Induction of thermal stabilization of MPO (unknown origin) at 10 uM by CESTA analysis
[9] = test system: HT-22; experiment: Cytotoxicity against mouse HT-22 cells assessed as cell viability at 50 uM incubated for 24 hrs by CCK-8 method; type: functional, cell-based
[10] = molecular target: T1, Myeloperoxidase (Homo sapiens); experiment: Inhibition of MPO in HEK293T cells harbouring MPO-ZsGreen assessed as decrease in red fluorescence intensity at 10 uM preincubated with edaravone for 4 hrs followed by compound addition and measured after 30 mins by fluorescence imaging based confocal microscopy analysis; type: cell-based
[11] = test system: Mus musculus; experiment: Protection against photo thrombotic stroke induced cerebral ischemia in male C57BL/6 mouse model assessed as MPO secretion in brain at 1 mg/kg, iv by Ly6G staining based confocal microscopy based analysis; type: functional, organism-based
[12] = molecular target: T1, Myeloperoxidase (Homo sapiens); experiment: Inhibition of MPO in HEK293T cells harbouring MPO-ZsGreen assessed as decrease in red fluorescence intensity at 10 uM preincubated with AZD5904 for 4 hrs followed by compound addition and measured after 30 mins by fluorescence imaging based confocal microscopy analysis; type: cell-based
[13] = Drug uptake in human HeLa cells assessed as increase in red fluorescence at 10 uM measured after 30 mins in presence of HClO by Hoechst staining based confocal microscopic analysis; type: ADME, cell-based; settings: 0.5 h
[14] = Drug uptake in human HeLa cells assessed as increase in red fluorescence at 10 uM measured within 40 mins in presence of HClO by Hoechst staining based confocal microscopic analysis; type: ADME, cell-based
[15] = molecular target: T1, Myeloperoxidase (Homo sapiens); experiment: Inhibition of MPO in HEK293T cells harbouring MPO-ZsGreen assessed as decrease in red fluorescence intensity at 10 uM preincubated with MPO-IN-28 for 4 hrs followed by compound addition and measured after 30 mins by fluorescence imaging based confocal microscopy analysis; type: cell-based
[16] = molecular target: T1, Myeloperoxidase (Homo sapiens); experiment: Inhibition of MPO in human HL-60 cells harbouring MPO-ZsGreen assessed as decrease in red fluorescence intensity at 10 uM preincubated with MPO-IN-28 for 2 hrs followed by compound addition and measured after 30 mins by fluorescence imaging based confocal microscopy analysis; type: cell-based
[17] = species on record: Mus musculus; experiment: Protection against photo thrombotic stroke induced cerebral ischemia in male C57BL/6 mouse model assessed as decrease in fluorescence response in brain cortex preincubated with AZD5904 for 18 consecutive days followed by induction of stoke for 3 days and measured after 7 days by Ly6G staining based confocal microscopy based analysis; type: functional, organism-based; settings: time 7.0 day
[18] = molecular target: T1, Myeloperoxidase (Homo sapiens); experiment: Inhibition of MPO in HEK293T cells harbouring MPO-ZsGreen assessed as decrease in red fluorescence intensity at 10 uM preincubated with ZL-002 for 4 hrs followed by compound addition and measured after 30 mins by fluorescence imaging based confocal microscopy analysis; type: cell-based
[19] = molecular target: T1, Myeloperoxidase (Homo sapiens); experiment: Inhibition of MPO in HEK293T cells harbouring MPO-ZsGreen assessed as decrease in red fluorescence intensity at 10 uM preincubated with ZL-006 for 4 hrs followed by compound addition and measured after 30 mins by fluorescence imaging based confocal microscopy analysis; type: cell-based
[20] = molecular target: T2, Myeloperoxidase (Homo sapiens, UniProt P05164); experiment: as §1
T2 sequence (P05164 whole entry): T1 sequence (whole entry)

[21] = test system: Brain; experiment: as §2, with “AZD5904” for “MPO-IN-28”; type: functional, tissue-based
[22] = molecular target: T1, Myeloperoxidase (Homo sapiens); experiment: Inhibition of MPO in human HL-60 cells harbouring MPO-ZsGreen assessed as decrease in red fluorescence intensity at 10 uM preincubated with AZD5904 for 2 hrs followed by compound addition and measured after 30 mins by fluorescence imaging based confocal microscopy analysis; type: cell-based
[23] = Drug uptake in human HeLa cells at 10 uM measured after 30 mins by Hoechst staining based confocal microscopic analysis; type: ADME, cell-based; settings: 0.5 h
[24] = test system: Mus musculus; experiment: Protection against photo thrombotic stroke induced cerebral ischemia in male C57BL/6 mouse model assessed as decrease in asymmetry index at 40 mg/kg, IG preincubated for 18 consecutive days followed by induction of stoke for 3 days and measured after 10 to 15 days by foot fault test; type: functional, organism-based; settings: time 31-36 day
[25] = test system: Mus musculus; experiment: Protection against photo thrombotic stroke induced cerebral ischemia in male C57BL/6 mouse model assessed as amelioration of foot fault in hindlimb at 40 mg/kg, IG preincubated for 18 consecutive days followed by induction of stoke for 3 days and measured after 5 to 15 days by foot fault test; type: functional, organism-based; settings: time 26-36 day
[26] = test system: Mus musculus; experiment: Protection against photo thrombotic stroke induced cerebral ischemia in male C57BL/6 mouse model assessed as amelioration of foot fault in forelimb at 40 mg/kg, IG preincubated for 18 consecutive days followed by induction of stoke for 3 days and measured after 5 to 15 days by foot fault test; type: functional, organism-based; settings: time 26-36 day
[27] = test system: Mus musculus; experiment: Protection against photo thrombotic stroke induced cerebral ischemia in male C57BL/6 mouse model assessed as decrease in infarct size at 40 mg/kg, IG preincubated for 18 consecutive days followed by induction of stoke for 3 days and measured after 5 days by TTC staining based analysis; type: functional, organism-based; settings: time 26.0 day
[28] = test system: Mus musculus; experiment: Protection against photo thrombotic stroke induced cerebral ischemia in male C57BL/6 mouse model assessed as inhibition of MPO activity in brain at 40 mg/kg, IG preincubated for 18 consecutive days followed by induction of stoke for 3 days and measured after 7 days; type: functional, organism-based; settings: time 28.0 day
[29] = test system: Mus musculus; experiment: Protection against photo thrombotic stroke induced cerebral ischemia in male C57BL/6 mouse model assessed as effect on body weight at 40 mg/kg, IG preincubated for 18 consecutive days followed by induction of stoke for 3 days and measured after 5 days by TTC staining based analysis; type: functional, organism-based; settings: time 26.0 day
[30] = test system: HT-22; experiment: Cytotoxicity against mouse HT-22 cells assessed as cell viability at 20 uM incubated for 24 hrs by CCK-8 method; type: functional, cell-based

## CC1=NN(c2ccccc2)C(=O)C1
[1]
  Activity: inactive
[2]
  Activity: inactive
[3]
  Activity: inactive

## CCNc1cc2[o+]c3cc(NCC)c(C)cc3c(-c3ccccc3C(=O)OCC)c2cc1C
[4]
  Activity: inactive
[5]
  Activity: inactive

## COc1ccc2[nH]cc(CCNC(=S)NN3C(=O)c4ccccc4C34c3ccc(N(C)C)cc3[Si](C)(C)c3cc(N(C)C)ccc34)c2c1
[6]
  Activity: Active
[7]
  Drug uptake: Active
[8]
  Activity: Active
[9]
  Activity: Active; Compound Showed Little Toxicity
[10]
  inhibition: inactive
[11]
  Activity: Active
[12]
  inhibition: Active
[4]
  deltaH: 2.39 kcal/mol
[13]
  Drug uptake: Active
[14]
  Drug uptake: Not_active
[15]
  inhibition: Active
[16]
  inhibition: Active
[17]
  Activity: Active
[18]
  inhibition: inactive
[19]
  inhibition: Active
[20]
  Kd: 11.6 µM
[21]
  Activity: Active
[22]
  inhibition: Active
[23]
  Drug uptake: Not_active

## O=c1[nH]c(=S)n(C[C@H]2CCCO2)c2nc[nH]c12
[24]
  Activity: Active
[25]
  Activity: Active
[26]
  Activity: Active
[27]
  Activity: Active
[28]
  Activity: Active
[29]
  Activity: Active

## CN(C)c1ccc2c(c1)[Si](C)(C)c1cc(N(C)C)ccc1C21c2ccccc2C(=O)N1NC(=S)NCCc1c[nH]c2ccc(O)cc12
[30]
  Activity: Active
